Columns and labels:
Mus musculus [1] = experiment: Anticonvulsant activity in CF1 albino mouse assessed as inhibition of maximal electric shock-induced seizure at 100 mg/kg, ip after 4 hrs; format: functional; conditions: route intraperitoneal
Rattus norvegicus [2] = experiment: Anticonvulsant activity in Sprague-Dawley rat assessed as inhibition of maximal electric shock-induced seizure at 30 mg/kg, po after 0.5 hrs; format: functional
Mus musculus [3] = experiment: Anticonvulsant activity in CF1 albino mouse assessed as inhibition of maximal electric shock-induced seizure at 100 mg/kg, ip after 0.5 hrs; format: functional; conditions: route intraperitoneal
Mus musculus [4] = experiment: Anticonvulsant activity in CF1 albino mouse assessed as inhibition of maximal electric shock-induced seizure at 30 mg/kg, ip after 4 hrs; format: functional; conditions: route intraperitoneal
Mus musculus [5] = experiment: Anticonvulsant activity in CF1 albino mouse assessed as inhibition of maximal electric shock-induced seizure at 30 mg/kg, ip after 0.5 hrs; format: functional; conditions: route intraperitoneal
Rattus norvegicus [6] = experiment: Neurotoxicity in Sprague-Dawley rat at 30 mg/kg, po by positional sense and gait and stance test; format: toxicity, organism-based; design: dose 30 mg/kg, route oral; conditions: in vivo
Rattus norvegicus [7] = experiment: Anticonvulsant activity in Sprague-Dawley rat assessed as inhibition of maximal electric shock-induced seizure at 30 mg/kg, po after 1 hrs; format: functional
Mus musculus [8] = experiment: Anticonvulsant activity in CF1 albino mouse assessed as inhibition of maximal electric shock-induced seizure at 300 mg/kg, ip after 4 hrs; format: functional; conditions: route intraperitoneal
Rattus norvegicus [9] = experiment: Anticonvulsant activity in Sprague-Dawley rat assessed as inhibition of maximal electric shock-induced seizure at 30 mg/kg, po after 2 hrs; format: functional
Mus musculus [10] = experiment: Anticonvulsant activity in CF1 albino mouse assessed as inhibition of maximal electric shock-induced seizure at 300 mg/kg, ip after 0.5 hrs; format: functional; conditions: route intraperitoneal
Rattus norvegicus [11] = experiment: Anticonvulsant activity in Sprague-Dawley rat assessed as inhibition of maximal electric shock-induced seizure at 30 mg/kg, po after 4 hrs; format: functional
Rattus norvegicus [12] = experiment: Anticonvulsant activity in Sprague-Dawley rat assessed as inhibition of maximal electric shock-induced seizure at 30 mg/kg, po after 0.25 hrs; format: functional
Mus musculus [13] = experiment: Neurotoxicity in CF1 albino mouse at 100 mg/kg, ip by rotarod test; format: toxicity, organism-based; design: dose 100 mg/kg, route intraperitoneal; conditions: in vivo
Rattus norvegicus [14] = experiment: Neurotoxicity in Sprague-Dawley rat at 500 mg/kg, po by positional sense and gait and stance test; format: toxicity, organism-based; design: dose 500 mg/kg, route oral; conditions: in vivo
Rattus norvegicus [15] = experiment: Anticonvulsant activity against kindle motor-induced seizure in rat assessed as after discharge duration at 100 mg/kg, ip after 195 mins by hippocampal kindling screen test; format: functional, Hippocampus; conditions: route intraperitoneal
Mus musculus [16] = experiment: Anticonvulsant activity in CF1 albino mouse assessed as inhibition of minimal clonic seizure at 30 mg/kg, ip after 2 hrs; format: functional; conditions: route intraperitoneal
Mus musculus [17] = experiment: Anticonvulsant activity in CF1 albino mouse assessed as inhibition of minimal clonic seizure at 100 mg/kg, ip after 0.5 hrs; format: functional; conditions: route intraperitoneal
Rattus norvegicus [18] = experiment: Anticonvulsant activity against kindle motor-induced seizure in rat assessed as after discharge duration at 100 mg/kg, ip after 105 mins by hippocampal kindling screen test; format: functional, Hippocampus; conditions: route intraperitoneal
Rattus norvegicus [19] = experiment: Anticonvulsant activity against kindle motor-induced seizure in rat assessed as after discharge duration at 100 mg/kg, ip after 15 mins by hippocampal kindling screen test; format: functional, Hippocampus; conditions: route intraperitoneal
Mus musculus [20] = experiment: Anticonvulsant activity in CF1 albino mouse assessed as inhibition of minimal clonic seizure at 30 mg/kg, ip after 0.25 hrs; format: functional; conditions: route intraperitoneal
Mus musculus [21] = experiment: Anticonvulsant activity in CF1 albino mouse assessed as inhibition of minimal clonic seizure at 100 mg/kg, ip after 2 hrs; format: functional; conditions: route intraperitoneal
Mus musculus [22] = experiment: Neurotoxicity in CF1 albino mouse at 300 mg/kg, ip by rotarod test after 4 hrs; format: toxicity, organism-based; design: dose 300 mg/kg, route intraperitoneal; conditions: in vivo
Mus musculus [23] = experiment: Anticonvulsant activity in CF1 albino mouse assessed as inhibition of minimal clonic seizure at 80 mg/kg, ip after 0.25 hrs; format: functional; conditions: route intraperitoneal
Rattus norvegicus [24] = experiment: Anticonvulsant activity against kindle motor-induced seizure in rat assessed as after discharge duration at 100 mg/kg, ip after 225 mins by hippocampal kindling screen test; format: functional, Hippocampus; conditions: route intraperitoneal
Rattus norvegicus [25] = experiment: Anticonvulsant activity against kindle motor-induced seizure in rat assessed as after discharge duration at 100 mg/kg, ip after 135 mins by hippocampal kindling screen test; format: functional, Hippocampus; conditions: route intraperitoneal
Rattus norvegicus [26] = experiment: Anticonvulsant activity against kindle motor-induced seizure in rat assessed as after discharge duration at 100 mg/kg, ip after 45 mins by hippocampal kindling screen test; format: functional, Hippocampus; conditions: route intraperitoneal
Mus musculus [27] = experiment: Anticonvulsant activity in CF1 albino mouse assessed as inhibition of minimal clonic seizure at 80 mg/kg, ip after 4 hrs; format: functional; conditions: route intraperitoneal
Mus musculus [28] = experiment: Anticonvulsant activity in CF1 albino mouse assessed as inhibition of minimal clonic seizure at 100 mg/kg, ip after 4 hrs; format: functional; conditions: route intraperitoneal
Mus musculus [29] = experiment: Anticonvulsant activity in CF1 albino mouse assessed as inhibition of minimal clonic seizure at 100 mg/kg, ip after 0.25 hrs; format: functional; conditions: route intraperitoneal
Mus musculus [30] = experiment: Anticonvulsant activity in CF1 albino mouse assessed as inhibition of minimal clonic seizure at 100 mg/kg, ip after 1 hrs; format: functional; conditions: route intraperitoneal
Mus musculus [31] = experiment: Anticonvulsant activity in CF1 albino mouse assessed as inhibition of minimal clonic seizure at 80 mg/kg, ip after 1 hrs; format: functional; conditions: route intraperitoneal
Mus musculus [32] = experiment: Anticonvulsant activity in CF1 albino mouse assessed as inhibition of minimal clonic seizure at 30 mg/kg, ip after 1 hrs; format: functional; conditions: route intraperitoneal
Mus musculus [33] = experiment: Anticonvulsant activity in CF1 albino mouse assessed as inhibition of minimal clonic seizure at 80 mg/kg, ip after 2 hrs; format: functional; conditions: route intraperitoneal
Rattus norvegicus [34] = experiment: Anticonvulsant activity against kindle motor-induced seizure in rat assessed as after discharge duration at 100 mg/kg, ip after 165 mins by hippocampal kindling screen test; format: functional, Hippocampus; conditions: route intraperitoneal
Rattus norvegicus [35] = experiment: Anticonvulsant activity against kindle motor-induced seizure in rat assessed as after discharge duration at 100 mg/kg, ip after 75 mins by hippocampal kindling screen test; format: functional, Hippocampus; conditions: route intraperitoneal
Rattus norvegicus [36] = experiment: Anticonvulsant activity against kindle motor-induced seizure in rat assessed as after discharge duration at 100 mg/kg, ip after 255 mins by hippocampal kindling screen test; format: functional, Hippocampus; conditions: route intraperitoneal
Mus musculus [37] = experiment: Anticonvulsant activity in CF1 albino mouse assessed as inhibition of minimal clonic seizure at 80 mg/kg, ip after 0.5 hrs; format: functional; conditions: route intraperitoneal
Mus musculus [38] = experiment: Anticonvulsant activity in CF1 albino mouse assessed as inhibition of minimal clonic seizure at 30 mg/kg, ip after 0.5 hrs; format: functional; conditions: route intraperitoneal
Rattus norvegicus [39] = experiment: Neurotoxicity in Sprague-Dawley rat at 500 mg/kg, po by positional sense and gait and stance test after 1 hrs; format: toxicity, organism-based; design: dose 500 mg/kg, route oral; conditions: in vivo
Rattus norvegicus [40] = experiment: Neurotoxicity in Sprague-Dawley rat at 250 mg/kg, po by positional sense and gait and stance test; format: toxicity, organism-based; design: dose 250 mg/kg, route oral; conditions: in vivo

Row | Structure (SMILES) | inhibition in vivo at 100 mg/kg (Mus musculus [1]) [%] | inhibition in vivo at 30 mg/kg (Rattus norvegicus [2]) [%] | inhibition in vivo at 100 mg/kg (Mus musculus [3]) [%] | inhibition in vivo at 30 mg/kg (Mus musculus [4]) [%] | inhibition in vivo at 30 mg/kg (Mus musculus [5]) [%] | inhibition in vivo at 30 mg/kg (Rattus norvegicus [7]) [%] | inhibition in vivo at 300 mg/kg (Mus musculus [8]) [%] | inhibition in vivo at 30 mg/kg (Rattus norvegicus [9]) [%] | inhibition in vivo at 300 mg/kg (Mus musculus [10]) [%] | inhibition in vivo at 30 mg/kg (Rattus norvegicus [11]) [%] | inhibition in vivo at 30 mg/kg (Rattus norvegicus [12]) [%] | Activity (Mus musculus [13]) | inhibition in vivo at 100 mg/kg (Mus musculus [17]) [%] | inhibition in vivo at 30 mg/kg (Mus musculus [20]) [%] | inhibition in vivo at 100 mg/kg (Mus musculus [21]) [%] | inhibition in vivo at 100 mg/kg (Mus musculus [28]) [%] | inhibition in vivo at 100 mg/kg (Mus musculus [29]) [%] | inhibition in vivo at 100 mg/kg (Mus musculus [30]) [%] | inhibition in vivo at 30 mg/kg (Mus musculus [32]) [%] | inhibition in vivo at 30 mg/kg (Mus musculus [38]) [%] | also measured
1 | Nc1ccc(Oc2ccc(N)cc2)cc1 | 100 | 100 | 100 | 0 | 0 | 75 | 100 | 75 | 100 | 100 | 100 | – | – | – | – | – | – | – | – | – | Activity (Rattus norvegicus [6]): Non-toxic
2 | Nc1ccc(Cc2ccc(N)cc2)cc1 [4,4'-METHYLENEDIANILINE] | 0 | 75 | 100 | 0 | 0 | 100 | 100 | 100 | 100 | 50 | 100 | Non-toxic | – | – | – | – | – | – | – | – | –
3 | Nc1ccc(NC(=O)c2ccc(N)cc2)cc1 | 0 | 75 | 66 | 0 | 0 | 50 | 100 | 25 | 100 | 50 | 50 | – | – | – | – | – | – | – | – | – | Activity (Rattus norvegicus [14]): Non-toxic
4 | Nc1ccc(Sc2ccc(N)cc2)cc1 [4,4'-THIODIANILINE] | 100 | 100 | 66 | 0 | 0 | 100 | 100 | 100 | 100 | 100 | 100 | – | 100 | 0 | 100 | 0 | 100 | 100 | 25 | 25 | Activity (Rattus norvegicus [15]): 55.29 s; inhibition in vivo at 30 mg/kg (Mus musculus [16]): 25%; Activity (Rattus norvegicus [18]): 33.29 s; Activity (Rattus norvegicus [19]): 19.14 s; Activity (Mus musculus [22]): Non-toxic; inhibition in vivo at 80 mg/kg (Mus musculus [23]): 100%; Activity (Rattus norvegicus [24]): 71.29 s; Activity (Rattus norvegicus [25]): 34.71 s; Activity (Rattus norvegicus [26]): 25.29 s; inhibition in vivo at 80 mg/kg (Mus musculus [27]): 0%; inhibition in vivo at 80 mg/kg (Mus musculus [31]): 100%; inhibition in vivo at 80 mg/kg (Mus musculus [33]): 75%; Activity (Rattus norvegicus [34]): 57.43 s; Activity (Rattus norvegicus [35]): 24.86 s; Activity (Rattus norvegicus [36]): 65.43 s; inhibition in vivo at 80 mg/kg (Mus musculus [37]): 100%
5 | Nc1ccc(C(=O)c2ccc(N)cc2)cc1 | 100 | 100 | 100 | 0 | 0 | 75 | 100 | 100 | 100 | 75 | 50 | – | 100 | 0 | 0 | 0 | 100 | 100 | 0 | 0 | Activity (Rattus norvegicus [39]): Non-toxic
6 | Nc1ccc(Nc2cccc(N)c2)cc1 | 100 | 50 | 100 | 0 | 0 | 75 | 100 | 50 | 100 | 50 | 0 | Non-toxic | – | – | – | – | – | – | – | – | Activity (Rattus norvegicus [40]): Non-toxic

Reference: ChEMBL document CHEMBL1155312, “In vivo evaluation of diaminodiphenyls: anticonvulsant agents with minimal acute neurotoxicity” (Bioorg Med Chem Lett, 2009)
